# Laboratory results: US20100267561A1, “HERBICIDAL PYRIDAZINONE DERIVATIVES” (priority 2007, published 2010)
# Legend:
# Assay in all cases: Test B pre-/postemergence plant response
# Type in all cases: in vivo
# [1] = tested on: eastern black (E.B.) nightshade (Solanum ptycanthum); conditions: Preemergence; for Nightshade, E. B. plant response rating: 8 g ai/ha
# Procedure, shortened: (§1)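 Seeds were sown and sprayed preemergence, while plants at 2 to 18 cm (1- to 4-leaf stage) got postemergence sprays. Compounds were formulated in a non-phytotoxic solvent mixture with surfactant. After 13 to 15 days in a greenhouse, injury was rated visually against untreated controls, 0 (no effect) to 100 (complete control).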
# [2] = tested on: Russian thistle (Salsola iberica); conditions: Preemergence; for Russian Thistle plant response rating: 8 g ai/ha
# Procedure, shortened: as §1
# [3] = tested on: common (oilseed) sunflower (Helianthus annuus); conditions: Preemergence; for Sunflower plant response rating: 8 g ai/ha
# Procedure, shortened: as §1
# [4] = tested on: common ragweed (Ambrosia elation); conditions: Preemergence; for Ragweed plant response rating: 8 g ai/ha
# Procedure, shortened: as §1
# [5] = tested on: surinam grass (Brachiaria decumbens); conditions: Preemergence; for Surinam Grass plant response rating: 8 g ai/ha, scale 0 to 100
# Procedure, shortened: as §1
# [6] = tested on: blackgrass (Alopecurus myosuroides); conditions: Preemergence; for Blackgrass plant response rating: 8 g ai/ha
# Procedure, shortened: as §1
# [7] = tested on: yellow nutsedge (Cyperus esculentus); conditions: Preemergence; for Nutsedge, Yellow plant response rating: 8 g ai/ha
# Procedure, shortened: as §1
# [8] = tested on: corn (Zea mays); conditions: Preemergence; for Corn plant response rating: 8 g ai/ha
# Procedure, shortened: as §1
# [9] = tested on: green foxtail (Setaria viridis); conditions: Preemergence; for Foxtail, Green plant response rating: 8 g ai/ha
# Procedure, shortened: as §1
# [10] = tested on: downy bromegrass (Bromus tectorum); conditions: Preemergence; for Bromegrass, Downy plant response rating: 8 g ai/ha
# Procedure, shortened: as §1
# [11] = tested on: woolly cupgrass (Eriochloa villosa); conditions: Preemergence; for Cupgrass, Woolly plant response rating: 8 g ai/ha
# Procedure, shortened: as §1
# [12] = tested on: wheat (Triticum aestivum); conditions: Preemergence; for Wheat plant response rating: 8 g ai/ha, scale 0 to 100
# Procedure, shortened: as §1
# [13] = tested on: cocklebur (Xanthium strumarium); conditions: Preemergence; for Cocklebur plant response rating: 8 g ai/ha
# Procedure, shortened: as §1
# [14] = tested on: wild oat (Avena fatua); conditions: Preemergence; for Oat, Wild plant response rating: 8 g ai/ha
# Procedure, shortened: as §1
# [15] = 16 g ai/ha, scale 0 to 100 (0 no effect, 100 complete control)
# [16] = 31 g ai/ha, scale 0 to 100 (0 no effect, 100 complete control)
# [17] = 62 g ai/ha, 0 to 100 scale, 0 no effect, 100 complete control
# [18] = 31 g ai/ha, 0 to 100 scale, 0 no effect, 100 complete control
compound,measurement,setting,value
Cc1cc(-c2ccc(Cl)cc2)nn1-c1c(OS(=O)(=O)c2cccc3ccccc23)cnn(C)c1=O [Compound 47],"Plant response rating, Nightshade, E. B.",[1]; [15],0
same,"Plant response rating, Nightshade, E. B.",[1]; [16],0
same,"Plant response rating, Nightshade, E. B.","[1]; 62 g ai/ha, scale 0 to 100",0
same,"Nightshade, E. B. plant response rating",[1]; scale 0 to 100,0
same,"Plant response rating, Russian Thistle",[2]; [15],0
same,"Plant response rating, Russian Thistle",[2]; [16],0
same,"Plant response rating, Russian Thistle","[2]; 62 g ai/ha, scale 0 to 100",40
same,Russian Thistle plant response rating,[2]; scale 0 to 100,0
same,"Plant response rating, Sunflower",[3]; [15],0
same,"Plant response rating, Sunflower",[3]; [16],0
same,"Plant response rating, Sunflower","[3]; 62 g ai/ha, scale 0 to 100",0
same,Sunflower plant response rating,[3]; scale 0 to 100,0
same,"Plant response rating, Ragweed",[4]; [15],0
same,"Plant response rating, Ragweed",[4]; [16],0
same,"Plant response rating, Ragweed","[4]; 62 g ai/ha, scale 0 to 100",0
same,Ragweed plant response rating,[4]; scale 0 to 100,0
same,"Plant response rating, Surinam Grass",[5]; [15],95
same,"Plant response rating, Surinam Grass",[5]; [16],98
same,"Plant response rating, Surinam Grass",[5]; [17],100
same,Surinam Grass plant response rating,[5],80
same,"Plant response rating, Blackgrass",[6]; [15],70
same,"Plant response rating, Blackgrass",[6]; [18],100
same,"Plant response rating, Blackgrass","[6]; 62 g ai/ha, scale 0 to 100",100
same,Blackgrass plant response rating,[6]; scale 0 to 100,70
same,"Plant response rating, Nutsedge, Yellow",[7]; [15],0
same,"Plant response rating, Nutsedge, Yellow",[7]; [16],0
same,"Plant response rating, Nutsedge, Yellow","[7]; 62 g ai/ha, scale 0 to 100",0
same,"Nutsedge, Yellow plant response rating",[7]; scale 0 to 100,0
same,"Plant response rating, Corn",[8]; [15],20
same,"Plant response rating, Corn",[8]; [18],85
same,"Plant response rating, Corn","[8]; 62 g ai/ha, scale 0 to 100",95
same,Corn plant response rating,[8]; scale 0 to 100,0
same,"Plant response rating, Foxtail, Green",[9]; [15],80
same,"Plant response rating, Foxtail, Green",[9]; [18],100
same,"Plant response rating, Foxtail, Green","[9]; 62 g ai/ha, scale 0 to 100",100
same,"Foxtail, Green plant response rating",[9]; scale 0 to 100,5
same,"Plant response rating, Bromegrass, Downy",[10]; [15],0
same,"Plant response rating, Bromegrass, Downy",[10]; [18],0
same,"Plant response rating, Bromegrass, Downy","[10]; 62 g ai/ha, scale 0 to 100",90
same,"Bromegrass, Downy plant response rating",[10]; scale 0 to 100,0
same,"Plant response rating, Cupgrass, Woolly",[11]; [15],100
same,"Plant response rating, Cupgrass, Woolly",[11]; [18],100
same,"Plant response rating, Cupgrass, Woolly","[11]; 62 g ai/ha, scale 0 to 100",100
same,"Cupgrass, Woolly plant response rating",[11]; scale 0 to 100,98
same,"Plant response rating, Wheat",[12]; [15],0
same,"Plant response rating, Wheat",[12]; [16],0
same,"Plant response rating, Wheat",[12]; [17],20
same,Wheat plant response rating,[12],0
same,"Plant response rating, Cocklebur",[13]; [15],0
same,"Plant response rating, Cocklebur",[13]; [18],0
same,"Plant response rating, Cocklebur","[13]; 62 g ai/ha, scale 0 to 100",0
same,Cocklebur plant response rating,[13]; scale 0 to 100,0
same,"Plant response rating, Oat, Wild",[14]; [15],0
same,"Plant response rating, Oat, Wild",[14]; [16],0
same,"Plant response rating, Oat, Wild","[14]; 62 g ai/ha, scale 0 to 100",70
same,"Oat, Wild plant response rating",[14]; scale 0 to 100,0
Cc1cc(-c2ccc(Cl)cc2)nn1-c1c(OS(=O)(=O)C(C)C)cnn(C)c1=O [Compound 50],"Plant response rating, Nightshade, E. B.",[1]; [15],0
same,"Plant response rating, Nightshade, E. B.",[1]; [16],100
same,"Plant response rating, Nightshade, E. B.","[1]; 62 g ai/ha, scale 0 to 100",100
same,"Nightshade, E. B. plant response rating",[1]; scale 0 to 100,0
same,"Plant response rating, Russian Thistle",[2]; [15],0
same,"Plant response rating, Russian Thistle",[2]; [16],0
same,"Plant response rating, Russian Thistle","[2]; 62 g ai/ha, scale 0 to 100",0
same,Russian Thistle plant response rating,[2]; scale 0 to 100,0
same,"Plant response rating, Sunflower",[3]; [15],0
same,"Plant response rating, Sunflower",[3]; [16],0
same,"Plant response rating, Sunflower","[3]; 62 g ai/ha, scale 0 to 100",20
same,Sunflower plant response rating,[3]; scale 0 to 100,0
same,"Plant response rating, Ragweed",[4]; [15],0
same,"Plant response rating, Ragweed",[4]; [16],0
same,"Plant response rating, Ragweed","[4]; 62 g ai/ha, scale 0 to 100",0
same,Ragweed plant response rating,[4]; scale 0 to 100,0
same,"Plant response rating, Surinam Grass",[5]; [15],40
same,"Plant response rating, Surinam Grass",[5]; [16],90
same,"Plant response rating, Surinam Grass",[5]; [17],98
same,Surinam Grass plant response rating,[5],20
same,"Plant response rating, Blackgrass",[6]; [15],0
same,"Plant response rating, Blackgrass",[6]; [18],60
same,"Plant response rating, Blackgrass","[6]; 62 g ai/ha, scale 0 to 100",95
same,Blackgrass plant response rating,[6]; scale 0 to 100,0
same,"Plant response rating, Nutsedge, Yellow",[7]; [15],0
same,"Plant response rating, Nutsedge, Yellow",[7]; [16],0
same,"Plant response rating, Nutsedge, Yellow","[7]; 62 g ai/ha, scale 0 to 100",0
same,"Nutsedge, Yellow plant response rating",[7]; scale 0 to 100,0
same,"Plant response rating, Corn",[8]; [15],0
same,"Plant response rating, Corn","[8]; 62 g ai/ha, scale 0 to 100",90
same,Corn plant response rating,[8]; scale 0 to 100,0
same,"Plant response rating, Foxtail, Green",[9]; [15],95
same,"Plant response rating, Foxtail, Green",[9]; [18],98
same,"Plant response rating, Foxtail, Green","[9]; 62 g ai/ha, scale 0 to 100",100
same,"Foxtail, Green plant response rating",[9]; scale 0 to 100,0
same,"Plant response rating, Bromegrass, Downy",[10]; [15],0
same,"Plant response rating, Bromegrass, Downy",[10]; [18],0
same,"Plant response rating, Bromegrass, Downy","[10]; 62 g ai/ha, scale 0 to 100",0
same,"Bromegrass, Downy plant response rating",[10]; scale 0 to 100,0
same,"Plant response rating, Cupgrass, Woolly",[11]; [15],75
same,"Plant response rating, Cupgrass, Woolly",[11]; [18],98
same,"Plant response rating, Cupgrass, Woolly","[11]; 62 g ai/ha, scale 0 to 100",100
same,"Cupgrass, Woolly plant response rating",[11]; scale 0 to 100,20
same,"Plant response rating, Wheat",[12]; [15],0
same,"Plant response rating, Wheat",[12]; [16],0
same,"Plant response rating, Wheat",[12]; [17],0
same,Wheat plant response rating,[12],0
same,"Plant response rating, Cocklebur",[13]; [15],0
same,"Plant response rating, Cocklebur",[13]; [18],0
same,"Plant response rating, Cocklebur","[13]; 62 g ai/ha, scale 0 to 100",0
same,Cocklebur plant response rating,[13]; scale 0 to 100,0
same,"Plant response rating, Oat, Wild",[14]; [15],40
same,"Plant response rating, Oat, Wild",[14]; [16],40
same,"Plant response rating, Oat, Wild","[14]; 62 g ai/ha, scale 0 to 100",70
same,"Oat, Wild plant response rating",[14]; scale 0 to 100,20
